We go through 14 compounds from ChEMBL document CHEMBL1129035, “Tyrosine kinase inhibitors. 9. Synthesis and evaluation of fused tricyclic quinazoline analogues as ATP site inhibitors of the tyrosine kinase activity of the epidermal growth factor receptor” (J Med Chem, 1996).

Assay [1] concerns the target T1, Epidermal growth factor receptor (Homo sapiens, UniProt P00533). The assay can be described thus: Inhibition of tyrosine kinase activity of Epidermal growth factor receptor from human A431 carcinoma cells.
For assay [2], the target named is Fibroblast growth factor receptor (Homo sapiens, UniProt P22607+P11362+P22455+P21802). In words: Inhibition of Fibroblast growth factor receptor. Type of assay: protein assay.
Assay [3] can be described thus: Inhibition of Platelet-derived growth factor receptor.
The target of another assay is Insulin receptor (Homo sapiens, UniProt P06213). In words: Inhibition of Insulin receptor.
Sequence of Insulin receptor (P06213 28-758 limits assumed): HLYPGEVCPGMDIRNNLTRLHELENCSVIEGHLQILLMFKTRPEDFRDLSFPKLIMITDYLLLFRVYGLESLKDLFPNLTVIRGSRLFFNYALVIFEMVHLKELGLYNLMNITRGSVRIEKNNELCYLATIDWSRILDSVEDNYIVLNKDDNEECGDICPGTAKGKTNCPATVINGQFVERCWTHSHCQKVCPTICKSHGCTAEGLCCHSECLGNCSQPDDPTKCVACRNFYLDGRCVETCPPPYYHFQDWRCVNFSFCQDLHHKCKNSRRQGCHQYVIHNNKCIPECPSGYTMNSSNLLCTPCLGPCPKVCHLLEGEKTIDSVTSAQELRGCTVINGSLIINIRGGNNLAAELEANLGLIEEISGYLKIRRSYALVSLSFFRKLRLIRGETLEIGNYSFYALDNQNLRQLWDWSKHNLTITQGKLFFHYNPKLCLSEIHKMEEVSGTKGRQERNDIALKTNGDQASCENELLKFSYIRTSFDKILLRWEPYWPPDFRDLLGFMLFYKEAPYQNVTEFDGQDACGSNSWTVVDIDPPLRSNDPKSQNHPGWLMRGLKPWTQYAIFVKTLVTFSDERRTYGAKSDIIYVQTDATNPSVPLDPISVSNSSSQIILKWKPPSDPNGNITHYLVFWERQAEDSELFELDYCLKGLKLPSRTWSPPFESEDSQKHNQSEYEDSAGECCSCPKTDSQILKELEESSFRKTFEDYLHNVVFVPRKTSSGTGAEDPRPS
Sequence of Insulin receptor (P06213 763-1382 limits assumed): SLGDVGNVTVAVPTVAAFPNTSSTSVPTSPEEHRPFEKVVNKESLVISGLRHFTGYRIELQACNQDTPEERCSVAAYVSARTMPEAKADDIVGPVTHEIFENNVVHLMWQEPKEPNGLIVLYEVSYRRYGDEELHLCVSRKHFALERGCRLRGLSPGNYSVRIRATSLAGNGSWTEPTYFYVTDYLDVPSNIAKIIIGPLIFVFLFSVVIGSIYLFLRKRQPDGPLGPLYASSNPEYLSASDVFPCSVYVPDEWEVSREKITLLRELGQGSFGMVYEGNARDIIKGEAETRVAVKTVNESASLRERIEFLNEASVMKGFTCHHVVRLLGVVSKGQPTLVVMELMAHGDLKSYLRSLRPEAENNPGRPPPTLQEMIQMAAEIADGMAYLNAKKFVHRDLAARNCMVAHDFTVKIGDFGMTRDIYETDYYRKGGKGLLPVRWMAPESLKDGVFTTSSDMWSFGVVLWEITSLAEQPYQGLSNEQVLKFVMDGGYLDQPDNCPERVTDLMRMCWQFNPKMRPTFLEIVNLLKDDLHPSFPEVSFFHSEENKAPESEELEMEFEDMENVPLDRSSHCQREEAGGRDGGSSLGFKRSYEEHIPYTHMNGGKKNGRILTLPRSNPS
The target in assay [4] is Fibroblast growth factor receptor (Mus musculus, UniProt P21803+Q03142+P16092+Q61851). In words: Inhibition of FGF-mediated mitogenesis in Swiss 3T3 cells. Type of assay: functional, cell-based.
The target of assay [5] is Proto-oncogene tyrosine-protein kinase Src (Homo sapiens, UniProt P12931). In words: Inhibition of c-src enzyme.
Sequence of Proto-oncogene tyrosine-protein kinase Src (P12931 2-536 limits assumed): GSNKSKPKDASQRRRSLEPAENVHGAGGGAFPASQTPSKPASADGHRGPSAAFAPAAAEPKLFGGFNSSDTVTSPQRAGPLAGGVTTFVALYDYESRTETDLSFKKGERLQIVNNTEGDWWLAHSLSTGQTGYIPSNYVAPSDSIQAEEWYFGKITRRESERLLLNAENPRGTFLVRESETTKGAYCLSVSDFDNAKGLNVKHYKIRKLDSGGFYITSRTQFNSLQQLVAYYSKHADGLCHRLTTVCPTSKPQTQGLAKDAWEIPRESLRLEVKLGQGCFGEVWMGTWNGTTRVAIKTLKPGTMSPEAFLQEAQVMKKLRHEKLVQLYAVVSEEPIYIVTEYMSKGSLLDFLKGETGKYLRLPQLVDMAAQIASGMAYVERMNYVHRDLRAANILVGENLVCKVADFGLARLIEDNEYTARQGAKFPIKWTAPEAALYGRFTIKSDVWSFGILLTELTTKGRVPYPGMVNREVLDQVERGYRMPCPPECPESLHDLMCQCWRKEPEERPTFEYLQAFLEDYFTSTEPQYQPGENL
Assay [6] has as its target Platelet-derived growth factor receptor (Mus musculus, UniProt P05622+P26618). The assay can be described thus: Inhibition of PDGF-mediated mitogenesis in Swiss 3T3 cells. Type of assay: functional, cell-based.
Assay [7] is described as follows: Inhibitory activity against v-src enzyme.
A further assay concerns the target Protein kinase C (PKC). The assay can be described thus: Inhibition of Protein kinase C. The assay is classed as protein assay.
Assay [8] deals with T1, Epidermal growth factor receptor. The assay can be described thus: Inhibition of tyrosine kinase activity of Epidermal growth factor receptor from human A431 cells.

T1 sequence (P00533 whole entry): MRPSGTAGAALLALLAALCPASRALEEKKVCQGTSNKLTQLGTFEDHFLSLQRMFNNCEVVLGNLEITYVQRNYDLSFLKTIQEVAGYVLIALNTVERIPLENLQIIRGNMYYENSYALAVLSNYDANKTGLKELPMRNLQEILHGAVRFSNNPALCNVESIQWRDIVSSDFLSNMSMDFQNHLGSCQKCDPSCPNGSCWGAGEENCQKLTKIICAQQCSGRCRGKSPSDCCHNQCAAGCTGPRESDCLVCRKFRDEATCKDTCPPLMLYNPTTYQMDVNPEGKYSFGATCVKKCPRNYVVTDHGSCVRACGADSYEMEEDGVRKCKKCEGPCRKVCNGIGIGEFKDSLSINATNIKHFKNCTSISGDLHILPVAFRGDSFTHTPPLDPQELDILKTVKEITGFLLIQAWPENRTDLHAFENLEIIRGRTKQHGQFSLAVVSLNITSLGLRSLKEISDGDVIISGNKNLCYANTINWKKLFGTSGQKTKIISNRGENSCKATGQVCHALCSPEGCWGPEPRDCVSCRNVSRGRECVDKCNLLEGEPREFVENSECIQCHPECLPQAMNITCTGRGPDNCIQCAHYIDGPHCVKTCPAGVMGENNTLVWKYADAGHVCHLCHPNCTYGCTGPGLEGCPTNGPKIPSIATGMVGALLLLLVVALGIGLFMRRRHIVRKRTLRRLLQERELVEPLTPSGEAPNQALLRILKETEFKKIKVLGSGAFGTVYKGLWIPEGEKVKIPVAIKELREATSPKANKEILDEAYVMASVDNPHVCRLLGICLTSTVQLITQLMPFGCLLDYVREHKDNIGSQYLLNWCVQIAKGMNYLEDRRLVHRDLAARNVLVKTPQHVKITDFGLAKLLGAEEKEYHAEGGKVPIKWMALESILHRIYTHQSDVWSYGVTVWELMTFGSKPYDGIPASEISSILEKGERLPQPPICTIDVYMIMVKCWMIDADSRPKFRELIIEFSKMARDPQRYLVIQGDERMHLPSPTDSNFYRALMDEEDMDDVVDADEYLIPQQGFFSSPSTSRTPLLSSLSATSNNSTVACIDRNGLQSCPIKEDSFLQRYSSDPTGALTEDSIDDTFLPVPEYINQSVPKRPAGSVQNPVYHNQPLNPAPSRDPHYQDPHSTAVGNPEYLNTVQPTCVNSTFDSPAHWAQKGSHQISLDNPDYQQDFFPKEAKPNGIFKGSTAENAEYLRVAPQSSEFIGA

For `Cc1nc2cc3ncnc(Nc4cccc(Br)c4)c3cc2[nH]1`, in assay [1], it took 0.29 nM to reach half-maximal inhibition (IC50).
For the compound `Brc1cccc(Nc2ncnc3cc4[nH]cnc4cc23)c1`, the IC50 (in assay [2]; in assay [3]; against Insulin receptor; in [4]; in assay [5]; in assay [6]) was greater than 50000 nM throughout. Also, the half-maximal inhibitory concentration (IC50) (in assay [7]; against Protein kinase C (PKC)) was greater than 50000 nM in each case.
As to `Cn1cnc2cc3ncnc(Nc4cccc(Br)c4)c3cc21`, in assay [1], the IC50 (usually the midpoint of a concentration-inhibition curve) worked out at 0.01 nM. In other words, the picomolar range.
The compound `Brc1cccc(Nc2ncnc3cc4ncsc4cc23)c1` showed a 50% inhibitory concentration (IC50) in assay [1] of 44 nM. This IC50 is about 4400-fold higher than that of the compound before.
As for `Brc1cccc(Nc2ncnc3ccc4cc[nH]c4c23)c1`, in assay [1], the IC50 turned out to be 1.24 nM.
`Brc1cccc(Nc2ncnc3cc4[nH]ncc4cc23)c1` returned an IC50 in assay [8] of 0.44 nM. This lies in the sub-nanomolar range.
For `CN(C)CCn1cnc2cc3c(Nc4cccc(Br)c4)ncnc3cc21`, the IC50 in assay [8] turned out to be 22 nM.
Turning to `Brc1cccc(Nc2ncnc3c2ccc2[nH]cnc23)c1`, in assay [1], the IC50 turned out to be 272 nM.
Still for that read-out and setting: for `Brc1cccc(Nc2ncnc3cc4[nH]ccc4cc23)c1` the value was 0.44 nM; for `Brc1cccc(Nc2ncnc3cc4ccccc4cc23)c1`, 0.003 nM.
For `Brc1cccc(Nc2ncnc3cc4cn[nH]c4cc23)c1`, the IC50 in assay [8] came to 0.34 nM.
Take `Brc1cccc(Nc2ncnc3cc4[nH]nnc4cc23)c1`: the IC50 in assay [8] turned out to be 4.1 nM.
The same measure, in the same setting: as for `CN(C)CCn1cnc2c(Cl)c3c(Nc4cccc(Br)c4)ncnc3cc21`, the figure is 203 nM; as for `CN(C)CCn1cnc2cc3ncnc(Nc4cccc(Br)c4)c3cc21`, 1.32 nM.
